{"source": "patent US9145372B2", "about": "“Pyridazine derivatives, compositions and methods for treating cognitive impairment” (AGENEBIO, INC., priority 2010, dated 2015)", "key": {"aged-impaired (AI) rats": {"system": "aged-impaired (AI) rats", "assay": "Radial Arm Maze (RAM) behavioral task, spatial memory retention", "type": "in vivo, rat", "settings": "3 mg/kg i.p., two-hour delay RAM", "description": "The effects of methyl 3,5-diphenylpyridazine-4-carboxylate on the in vivo spatial memory retention of aged-impaired (AI) rats were assessed in a Radial Arm Maze (RAM) behavioral task using vehicle control and four different dosage levels of methyl 3,5-diphenylpyridazine-4-carboxylate (0.1 mg/kg, 0.3 mg/kg, 1 mg/kg and 3 mg/kg, ip). RAM behavioral tasks were performed on eight AI rats. All five treatment conditions (vehicle and four dosage levels) were tested on all eight rats.\nThe RAM apparatus used consisted of eight equidistantly-spaced arms. An elevated maze arm (7 cm width×75 cm length) projected from each facet of an octagonal center platform (30 cm diameter, 51.5 cm height). Clear side walls on the arms were 10 cm high and were angled at 65° to form a trough. A food well (4 cm diameter, 2 cm deep) was located at the distal end of each arm. Froot Loops™ (Kellogg Company) were used as rewards. Blocks constructed of Plexiglas™ (30 cm height×12 cm width) could be positioned to prevent entry to any arm. Numerous extra maze cues surrounding the apparatus were also provided.\nThe AI rats were initially subjected to a pre-training test (Chappell et al. Neuropharmacology 37: 481-487, 1998). The pre-training test consisted of a habituation phase (4 days), a training phase on the standard win-shift task (18 days) and another training phase (14 days) in which a brief delay was imposed between presentation of a subset of arms designated by the experimenter (e.g., 5 arms available and 3 arms blocked) and completion of the eight-arm win-shift task (i.e., with all eight arms available).\nIn the habituation phase, rats were familiarized to the maze for an 8-minute session on four consecutive days. In each of these sessions, food rewards were scattered on the RAM, initially on the center platform and arms and then progressively confined to the arms. After this habituation phase, a standard training protocol was used, in which a food pellet was located at the end of each arm. Rats received one trial each day for 18 days. Each daily trial terminated when all eight food pellets had been obtained or when either 16 choices were made or 15 minutes had elapsed. After completion of this training phase, a second training phase was carried out in which the memory demand was increased by imposing a brief delay during the trial. At the beginning of each trial, three arms of the eight-arm maze were blocked. Rats were allowed to obtain food on the five arms to which access was permitted during this initial “information phase” of the trial. Rats were then removed from the maze for 60 seconds, during which time the barriers on the maze were removed, thus allowing access to all eight arms. […]"}, "GABAA α5 receptor": {"target": "GABAA α5 receptor (Rattus norvegicus, UniProt P18508+P19969)", "sequence (P19969 32-464 limits assumed)": "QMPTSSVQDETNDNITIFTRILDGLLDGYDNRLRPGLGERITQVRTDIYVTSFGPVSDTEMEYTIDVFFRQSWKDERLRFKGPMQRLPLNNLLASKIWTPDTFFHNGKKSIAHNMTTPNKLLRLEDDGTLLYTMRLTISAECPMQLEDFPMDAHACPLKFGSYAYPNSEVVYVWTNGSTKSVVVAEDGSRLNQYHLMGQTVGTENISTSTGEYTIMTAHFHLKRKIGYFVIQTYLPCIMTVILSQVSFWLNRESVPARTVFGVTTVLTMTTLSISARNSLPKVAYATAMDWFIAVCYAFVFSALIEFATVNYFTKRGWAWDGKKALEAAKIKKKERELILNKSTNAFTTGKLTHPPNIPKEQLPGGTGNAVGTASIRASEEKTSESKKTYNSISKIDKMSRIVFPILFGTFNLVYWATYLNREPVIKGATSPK", "sequence (P18508 39-466)": "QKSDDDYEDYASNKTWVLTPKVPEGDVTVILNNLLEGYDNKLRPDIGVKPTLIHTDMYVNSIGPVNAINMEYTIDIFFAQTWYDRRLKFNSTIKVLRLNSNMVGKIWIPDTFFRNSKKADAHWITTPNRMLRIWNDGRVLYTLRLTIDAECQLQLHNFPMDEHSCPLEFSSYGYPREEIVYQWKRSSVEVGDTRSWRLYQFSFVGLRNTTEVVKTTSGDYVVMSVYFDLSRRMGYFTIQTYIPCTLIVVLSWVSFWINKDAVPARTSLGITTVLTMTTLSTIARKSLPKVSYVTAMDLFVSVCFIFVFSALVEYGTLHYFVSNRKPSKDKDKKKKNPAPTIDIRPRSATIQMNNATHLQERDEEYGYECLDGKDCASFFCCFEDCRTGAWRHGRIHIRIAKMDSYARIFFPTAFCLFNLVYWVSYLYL", "sequence (P63079 26-473 partner)": "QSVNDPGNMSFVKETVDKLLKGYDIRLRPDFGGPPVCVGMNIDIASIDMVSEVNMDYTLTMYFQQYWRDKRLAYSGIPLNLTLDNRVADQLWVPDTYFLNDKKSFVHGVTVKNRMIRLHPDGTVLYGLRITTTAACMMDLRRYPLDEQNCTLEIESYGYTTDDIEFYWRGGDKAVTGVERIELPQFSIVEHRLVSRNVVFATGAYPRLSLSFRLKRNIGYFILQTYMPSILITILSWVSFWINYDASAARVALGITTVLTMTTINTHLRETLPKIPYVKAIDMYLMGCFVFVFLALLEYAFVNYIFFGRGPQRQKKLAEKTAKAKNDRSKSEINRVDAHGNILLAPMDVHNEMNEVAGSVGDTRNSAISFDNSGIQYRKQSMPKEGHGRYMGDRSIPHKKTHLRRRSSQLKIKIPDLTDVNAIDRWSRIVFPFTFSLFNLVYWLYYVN", "assay": "GABAA α5 receptor occupancy in vivo with Ro 15-4513 tracer (hippocampus vs cerebellum)", "description": "Adult male Long Evans rats (265-295 g, Charles River, Portage, Mich., n=4/group) were used for GABAA α5 receptor occupancy studies. Rats were individually housed in ventilated stainless-steel racks on a 12:12 light/dark cycle. Food and water were available ad libitum.\nRo 15-4513 was used as a receptor occupancy (RO) tracer for GABAA α5 receptor sites in the hippocampus and cerebellum. Ro 15-4513 was chosen as the tracer based on its selectivity for GABAA α5 receptors relative to other alpha subunit containing GABAA receptors and because it has been successfully used for GABAA α5 RO studies in animals and humans (see, e.g., Lingford-Hughes et al., J. Cereb. Blood Flow Metab. 22:878-89 (2002); Pym et al, Br. J. Pharmacol. 146: 817-825 (2005); and Maeda et al., Synapse 47: 200-208 (2003)). Ro 15-4513 (1 μg/kg), was dissolved in 25% hydroxyl-propyl beta-cyclodextrin and administered i.v. 20′ prior to the RO evaluations. Methyl 3,5-diphenylpyridazine-4-carboxylate (0.1-10 mg/kg) was synthesized by Nox Pharmaceuticals (India) and was dissolved in 25% hydroxyl-propyl beta-cyclodextrin and administered i.v. 15′ prior to tracer injection.\nThe rats were sacrificed by cervical dislocation 20′ post tracer injection. The whole brain was rapidly removed, and lightly rinsed with sterile water. Trunk blood was collected in EDTA coated eppendorf tubes and stored on wet ice until study completion. Hippocampus and cerebellum were dissected and stored in 1.5 ml eppendorf tubes, and placed on wet ice until tissue extraction. In a drug naïve rat, six cortical brain tissues samples were collected for use in generating blank and standard curve samples.\nAcetonitrile containing 0.1% formic acid was added to each sample at a volume of four times the weight of the tissue sample. For the standard curve (0.1-30 ng/g) samples, a calculated volume of standard reduced the volume of acetonitrile. The sample was homogenized (FastPrep-24, Lysing Matrix D; 5.5 m/s, for 60 seconds or 7-8 watts power using sonic probe dismembrator; Fisher Scientific) and centrifuged for 16-minutes at 14,000 rpm. The (100 μl) supernatant solution was diluted by 300 μl of sterile water (pH 6.5). This solution was then mixed thoroughly and analyzed via LC/MS/MS for […] (tracer) and methyl 3,5-diphenylpyridazine-4-carboxylate.\nReceptor occupancy was determined by the ratio method which compared occupancy in the hippocampus (a region of high GABAA α5 receptor density) with occupancy in the cerebellum (a region with low GABAA α5 receptor density) and additionally by a high dose of the GABAA α5 negative allosteric modulator L-655,708 (10 mg/kg, i.v.) to define full occupancy."}}, "note": "“Also recorded” adds a separate entry of the source.", "data": [{"smiles": "COC(=O)c1c(-c2ccccc2)cnnc1-c1ccccc1", "note": "[methyl 3,5-diphenylpyridazine-4-carboxylate]", "values": [{"measurement": "average no. of errors ± SEM in retention test", "setting": "aged-impaired (AI) rats", "result": "1.31±0.40"}, {"measurement": "memory performance relative to vehicle control", "setting": "aged-impaired (AI) rats", "result": "significantly improved memory performance"}, {"measurement": "Ro 15-4513 binding in hippocampus", "setting": "GABAA α5 receptor; 0.01-10 mg/kg, i.v.", "result": "blocked; also recorded: dose-dependently reduced"}, {"measurement": "cerebellum levels (binding) of Ro 15-4513", "setting": "GABAA α5 receptor; 0.01-10 mg/kg, i.v.", "result": "did not affect; also recorded: without affecting"}, {"measurement": "GABAA α5 receptors occupied at exposures behaviorally active in aged-impaired rats", "setting": "GABAA α5 receptor; hippocampus, FIG. 5", "result": "about 32%"}, {"measurement": "ED50 of receptor occupancy, ratio method", "setting": "GABAA α5 receptor; i.v., hippocampus/cerebellum ratio method", "result": 1.8, "unit": "mg/kg"}, {"measurement": "receptor occupancy at 10 mg/kg", "setting": "GABAA α5 receptor; rat, iv, read-out: GABAA α5 receptor occupancy", "result": "> 90", "unit": "%"}, {"measurement": "receptor occupancy at 1 mg/kg", "setting": "GABAA α5 receptor; rat, iv, read-out: receptor occupancy at an exposure of 180 ng/g in hippocampus", "result": "32 to 39", "unit": "%"}]}]}
